Each molecule was assayed against Steroidogenic factor 1 (Homo sapiens, UniProt Q13285) (assay: SF-1 driven luciferase reporter response, dose response, counter-screen for RORA activator project, CHO-K1 cells (AID 695)). Conditions: not given.
Sequence of Steroidogenic factor 1 (Q13285 whole entry): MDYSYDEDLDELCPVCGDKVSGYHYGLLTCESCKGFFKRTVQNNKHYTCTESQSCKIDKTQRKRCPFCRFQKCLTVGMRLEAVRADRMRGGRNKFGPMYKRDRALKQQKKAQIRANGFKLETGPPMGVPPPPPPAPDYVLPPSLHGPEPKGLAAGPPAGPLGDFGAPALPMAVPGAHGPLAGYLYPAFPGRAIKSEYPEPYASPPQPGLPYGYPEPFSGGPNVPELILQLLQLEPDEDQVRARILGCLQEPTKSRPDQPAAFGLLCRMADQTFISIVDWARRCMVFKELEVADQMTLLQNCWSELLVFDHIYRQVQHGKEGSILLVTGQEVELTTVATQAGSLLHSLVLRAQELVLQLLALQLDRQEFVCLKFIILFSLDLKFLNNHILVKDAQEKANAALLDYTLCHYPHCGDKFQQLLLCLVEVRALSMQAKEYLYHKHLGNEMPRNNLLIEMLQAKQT
With `O=C1N(CCCN2C(=O)C3(OCCO3)c3ccccc32)c2ccccc2C12OCCO2` [1'-[3-(2'-ketospiro[1,3-dioxolane-2,3'-indoline]-1'-yl)propyl]spiro[1,3-dioxolane-2,3'-indoline]-2'-one] the EC50 was > 99 µM. `COc1cc(C)c(C(C)C)cc1S(=O)(=O)n1cnc(C)c1` [1-(2-methoxy-4-methyl-5-propan-2-yl-phenyl)sulfonyl-4-methyl-imidazole] gave an EC50 of 1.32 µM. With `CN1CCN(S(=O)(=O)c2ccc(Br)s2)CC1` [1-(5-bromanylthiophen-2-yl)sulfonyl-4-methyl-piperazine] the EC50 was > 99 µM. Work on `Clc1ccccc1OCCn1cnc2ccccc21` [1-[2-(2-chloranylphenoxy)ethyl]benzimidazole] yielded an EC50 of 3.67 µM. Work on `O=C(c1ccc(-c2nnc(-c3ccccc3)o2)cc1)N1CCCCCC1` [1-azepanyl-[4-(5-phenyl-1,3,4-oxadiazol-2-yl)phenyl]methanone] yielded an EC50 of 0.252 µM. `Cn1c(SCc2ccccc2F)nc2cccnc21` [2-(2-Fluoro-benzylsulfanyl)-3-methyl-3H-imidazo[4,5-b]pyridine] was tested, and the EC50 was > 1.22 µM. `Clc1ccc(-c2nnc(-c3ccccc3Cl)o2)cc1` [2-(2-chlorophenyl)-5-(4-chlorophenyl)-1,3,4-oxadiazole] gave an EC50 of 0.233 µM. `COc1ccc(Nc2oc(-c3ccccc3Cl)nc2C#N)cc1` [2-(2-chlorophenyl)-5-(4-methoxyanilino)-1,3-oxazole-4-carbonitrile] gave an EC50 of 2.74 µM. `CCCCOC(=O)C(C)Oc1ccc(=O)n(-c2ccccc2)n1` (configuration not stated) [2-(6-keto-1-phenyl-pyridazin-3-yl)oxypropionic acid butyl ester] was tested, and the EC50 was > 99 µM. `CCOC(=O)c1ccccc1NC(=O)CSc1nnnn1C1CCCCC1` [2-[2-(1-Cyclohexyl-1H-tetrazol-5-ylsulfanyl)-acetylamino]-benzoic acid ethyl ester] was tested, and the EC50 was > 99 µM. With `Cc1cc(NCCOCCO)n2ncc(-c3ccc(Cl)cc3)c2n1` [2-[2-[[3-(4-chlorophenyl)-5-methyl-7-pyrazolo[1,5-a]pyrimidinyl]amino]ethoxy]ethanol] the EC50 was 0.485 µM. In the case of `CCCCOc1ccc(-c2nnn(CC(=O)NCc3ccco3)n2)cc1` [2-[5-(4-Butoxy-phenyl)-tetrazol-2-yl]-N-furan-2-ylmethyl-acetamide], the EC50 is reported as 1.88 µM. In the case of `Nc1c(C(=O)NCCN2CCOCC2)c2nc3ccccc3nc2n1-c1ccc2c(c1)OCO2` [2-amino-1-(1,3-benzodioxol-5-yl)-N-(2-morpholin-4-ylethyl)pyrrolo[3,2-b]quinoxaline-3-carboxamide], the EC50 is reported as > 11 µM. Molecule `COCCOC(=O)c1[nH]c2c(c1C)C(=O)CC(c1cc(OC)ccc1OC)C2` (configuration not stated) [2-methoxyethyl 6-(2,5-dimethoxyphenyl)-3-methyl-4-oxo-1,5,6,7-tetrahydroindole-2-carboxylate] has an EC50 of 7.67 µM. With `Cc1cc(N)c(NC2=CC(=O)CC(C)(C)C2)cc1C` [3-(2-amino-4,5-dimethyl-anilino)-5,5-dimethyl-cyclohex-2-en-1-one] the EC50 was > 11 µM. `CC(=O)C(C)Oc1ccc2c3c(c(=O)oc2c1C)CCCC3` (configuration not stated) [3-(2-keto-1-methyl-propoxy)-4-methyl-7,8,9,10-tetrahydrobenzo[c]chromen-6-one] gave an EC50 of 0.807 µM. `COc1cccc(-c2noc(-c3cccs3)n2)c1` [3-(3-methoxyphenyl)-5-(2-thienyl)-1,2,4-oxadiazole] gave an EC50 of 0.226 µM. For `COc1cccc(-c2noc(-c3cccnc3)n2)c1` [3-(3-methoxyphenyl)-5-(3-pyridinyl)-1,2,4-oxadiazole], the EC50 was 1.74 µM. For `O=C1OC(N2CCN(Cc3ccccc3)CC2)c2ccccc21` (configuration not stated) [3-(4-benzylpiperazin-1-yl)-3H-2-benzofuran-1-one], the EC50 was > 99 µM. `Cc1cc(NC(=O)c2oc3ccccc3c2C)ccc1-n1cnnn1` [3-Methyl-benzofuran-2-carboxylic acid (3-methyl-4-tetrazol-1-yl-phenyl)-amide] was tested, and the EC50 was 3.24 µM. `CCn1c(-c2ccc(N(C)C)cc2)nc2ccccc21` [4-(1-ethyl-2-benzimidazolyl)-N,N-dimethylaniline] was tested, and the EC50 was 0.54 µM. `COc1ccccc1-c1nc(-c2ccncc2)no1` [4-[5-(2-Methoxy-phenyl)-[1,2,4]oxadiazol-3-yl]-pyridine] was tested, and the EC50 was 1.24 µM. `Cc1ccccc1Cn1ccc(NC(=O)c2onc(C)c2Cl)n1` [4-chloranyl-3-methyl-N-[1-[(2-methylphenyl)methyl]pyrazol-3-yl]-1,2-oxazole-5-carboxamide] gave an EC50 of 7.18 µM. `COc1ccc(C(=O)Nc2cc(C)on2)cc1` [4-methoxy-N-(5-methyl-1,2-oxazol-3-yl)benzamide] was tested, and the EC50 was 0.918 µM. `Cc1ccc(-c2nc(C#N)c(NCc3ccco3)o2)cc1` [5-(2-furanylmethylamino)-2-(4-methylphenyl)-4-oxazolecarbonitrile] gave an EC50 of 3.42 µM. Molecule `Oc1coc2ccc(OCc3ccc(F)cc3)cc12` [5-(4-fluorobenzyl)oxycoumaran-3-one] has an EC50 of 1.71 µM. Work on `CCOc1ccc(-c2nc(C#N)c(NC3CC3)o2)cc1` [5-(cyclopropylamino)-2-(4-ethoxyphenyl)-1,3-oxazole-4-carbonitrile] yielded an EC50 of 4.02 µM. For `Cc1ccc2nc(Nc3ccc4[nH]c(O)nc4c3)c(-n3nc(C)cc3C)nc2c1` [5-[[3-(3,5-dimethyl-1-pyrazolyl)-6-methyl-2-quinoxalinyl]amino]-1,3-dihydrobenzimidazol-2-one], the EC50 was > 1.22 µM. With `COc1cccc(NC(=O)c2nnn(Cc3ccc(Br)cc3F)c2N)c1` [5-amino-1-(4-bromo-2-fluoro-benzyl)-N-(3-methoxyphenyl)triazole-4-carboxamide] the EC50 was 4.38 µM. With `O=C(Nc1ccc(N2CCCCC2)cc1)c1cncc(Br)c1` [5-bromanyl-N-(4-piperidin-1-ylphenyl)pyridine-3-carboxamide] the EC50 was 1.06 µM. Work on `CCOc1cc(N2CCOCC2)c(OCC)cc1NS(=O)(=O)c1ccc(Cl)s1` [5-chloranyl-N-(2,5-diethoxy-4-morpholin-4-yl-phenyl)thiophene-2-sulfonamide] yielded an EC50 of 1.22 µM. `CCN(CCCNC(=O)c1cn(CC)c2ccc(S(=O)(=O)N(C)C)cc2c1=O)c1cccc(C)c1` [6-(dimethylsulfamoyl)-1-ethyl-N-[3-(N-ethyl-3-methyl-anilino)propyl]-4-keto-quinoline-3-carboxamide] was tested, and the EC50 was > 99 µM. For `COC(=O)c1c(NC(=O)CC2SCC(C(=O)OC)NC2=O)sc2c1CCCC2` (configuration not stated) [6-[2-[(3-carbomethoxy-4,5,6,7-tetrahydrobenzothiophen-2-yl)amino]-2-keto-ethyl]-5-keto-thiomorpholine-3-carboxylic acid methyl ester], the EC50 was > 99 µM. `Cc1cccn2cc(-c3ccccc3)nc12` [8-methyl-2-phenyl-imidazo[1,2-a]pyridine] showed an EC50 of 0.19 µM. `Cn1cccc1C(=O)OCc1csc(-c2ccccc2)n1` [(2-phenyl-1,3-thiazol-4-yl)methyl 1-methylpyrrole-2-carboxylate] was tested, and the EC50 was 0.129 µM. `CCOC(=O)CSc1nc2cc(OCC)ccc2cc1C#N` [(3-Cyano-7-ethoxy-quinolin-2-ylsulfanyl)-acetic acid ethyl ester] gave an EC50 of 3.28 µM. In the case of `CC1=CCC(COC(=O)Nc2ccccc2)CC1` (configuration not stated) [(4-methylcyclohex-3-en-1-yl)methyl N-phenylcarbamate], the EC50 is reported as 1.24 µM. `CCN(CC)C(=O)Oc1ccc2c(=O)c(-c3ccccc3)coc2c1` [(4-oxidanylidene-3-phenyl-chromen-7-yl) N,N-diethylcarbamate] gave an EC50 of 0.826 µM. With `CCOC(=O)Nc1ccc2c(c1)Nc1ccccc1S2` [(10H-Phenothiazin-2-yl)-carbamic acid ethyl ester] the EC50 was > 3.67 µM. `C=CCOc1ccc(C=CC(C)N=O)cc1` (configuration not stated) [(E)-4-(4-allyloxyphenyl)but-3-en-2-one oxime] showed an EC50 of 1.02 µM. In the case of `CCOc1ccc(C=CC(C)N=O)cc1` (configuration not stated) [(Z)-4-(4-ethoxyphenyl)-3-buten-2-one oxime], the EC50 is reported as > 0.407 µM. `CC(C)CNS(=O)(=O)c1ccc(C(=O)Nc2ccc3c(c2)OCCO3)cc1` [MLS000032888] was tested, and the EC50 was 5.53 µM. For `COc1ccc(C(O)P(=O)(O)CCc2ccccc2)cc1` (configuration not stated) [MLS000038577], the EC50 was > 99 µM. In the case of `COc1ccc(C(=O)n2c(-c3ccco3)nc3ccccc32)cc1` [MLS000039368], the EC50 is reported as 4.8 µM. Molecule `COc1ccccc1-c1nnc(NC(C)=O)s1` [MLS000041972] has an EC50 of 1.3 µM. Work on `CCn1c(Cn2nnc(-c3ccccc3)n2)nnc1SCC(=O)Nc1ccc(C(C)=O)cc1` [MLS000068275] yielded an EC50 of 2.15 µM. With `CCOc1ccc2nc(NC(=O)c3cnccn3)sc2c1` [MLS000070707] the EC50 was 0.14 µM. `COc1ccc2nc(NC(=O)CSc3nnc(-c4ccoc4C)n3C)sc2c1` [MLS000073639] showed an EC50 of 4.83 µM. In the case of `CCc1nnc2c3cnn(-c4ccccc4)c3ncn12` [MLS000080478], the EC50 is reported as 5.08 µM. With `O=C(NCc1cccs1)c1noc2c1CCCC2` [MLS000087354] the EC50 was 5.05 µM. `Cc1ccc2c(c1)c1c3n2CCCNC3CCC1` (configuration not stated) [MLS000105423] was tested, and the EC50 was > 99 µM. With `COc1ccc(CCC(=O)Nc2ccc3c(c2)OCCO3)cc1` [MLS000110197] the EC50 was > 99 µM. With `CCOc1ccc2nc(N3CCC(C(=O)N4CCN(c5ccccn5)CC4)CC3)sc2c1` [MLS000119552] the EC50 was > 99 µM. `O=C(Nc1nnc(C23CC4CC(CC(C4)C2)C3)s1)c1ccco1` [N-[5-(1-adamantyl)-1,3,4-thiadiazol-2-yl]furan-2-carboxamide] showed an EC50 of 0.257 µM. `O=C(Nc1ccc2nc(-c3ccc(Br)o3)[nH]c2c1)c1cccs1` [SMR000046012] gave an EC50 of 4.11 µM. `Oc1ccc(Cl)cc1C=Nc1nc2ccccc2[nH]1` [SMR000103225] was tested, and the EC50 was > 99 µM. With `Cc1nc(N=CN(C)C)sc1C(=O)Nc1ccccc1` [SMR000107046] the EC50 was 6.15 µM. `Cc1c(C(=O)OCC2CCCO2)[nH]c2c1C(=O)CC(c1ccco1)C2` (configuration not stated) [oxolan-2-ylmethyl 6-(furan-2-yl)-3-methyl-4-oxo-1,5,6,7-tetrahydroindole-2-carboxylate] was tested, and the EC50 was 1.23 µM.

Same assay, conditions: inactive by the depositor's call
With `O=c1c2ccccc2nc2ccc(NCc3ccco3)nn12` [2-(2-furanylmethylamino)-10-pyridazino[6,1-b]quinazolinone] the EC50 was 27.3 µM. Molecule `O=C(c1ccco1)N1CCN(c2ncnc3c(-c4ccccc4)nsc23)CC1` [2-furanyl-[4-(3-phenyl-7-isothiazolo[4,5-d]pyrimidinyl)-1-piperazinyl]methanone] has an EC50 of 21 µM. For `O=C(NC1CCCC1)c1cc(-c2cccs2)on1` [MLS000087238], the EC50 was 10.9 µM. `O=C(CSc1nc[nH]n1)Nc1nnc(-c2ccccc2)s1` [SMR000091719] was tested, and the EC50 was 12.7 µM.

Reference: BindingDB's records for doi:10.7270/Q2028PXQ (The Scripps Research Institute Molecular Screening Center, 2007)
